{"source": "patent US20160223559A1", "about": "“TETRAZINE-CONTAINING COMPOUNDS AND SYNTHETIC METHODS THEREOF” (The Regents of the University of California, priority 2015, published 2016)", "key": {"[1]": {"assay": "Storage and solution stability", "format": "physicochemical", "conditions": "stored at −20° C. for several months"}, "[2]": {"assay": "Solubility in DMF:PBS during kinetic measurement", "format": "physicochemical", "conditions": "DMF:PBS at DMF concentrations lower than 80%", "experimental": "FIGS. 3A-3B. (E)-3-substituted-6-styryl-s-tetrazine reaction kinetics. FIG. 3A: Reaction scheme of (E)-cyclooct-4-enol and the series of tetrazines for kinetic characterization. Only one isomer is depicted for 15. FIG. 3B: Tetrazine kinetics were determined by reacting 1 mM tetrazine with an excess (10 mM) of (E)-cyclooct-4-enol in 50% DMF, 50% PBS 1×pH 7.4 buffer at 22° C. Second-order rate constants derived from the data are listed, and the corresponding curves for 2b, 2p, and 11 are shown in FIG. 4A. Tetrazine 2p was reacted in 80% DMF, 20% PBS due to its insolubility at lower DMF concentrations.\nA NANODROP™ 2000c (Thermo Scientific) equipped with a cuvette reader and a stirrer was used in the kinetic measurements, and the disappearance of the tetrazine peak absorption around 520 nm was measured over time. Tetrazines at 1 mM were reacted with an excess 10 mM (E)-cyclooct-4-enol with the measurements commencing immediately upon (E)-cyclooct-4-enol addition (FIGS. 3A, 4A-4B). Solution conditions were maintained at 1:1 DMF:PBS pH 7.4 buffer (Sigma Life Science), and all the measurements were done at 22° C. room temperature. Tetrazine peak intensity at each time point was adjusted for background by extrapolation, as in the previous section. Tetrazine peak disappearance is shown as points in FIGS. 4A-4B, with the connecting lines resulting from the nonlinear fits made with Prism 6.0c. […]"}, "[3]": {"assay": "Fluorescence assays: fluorogenic turn-on reaction with dienophiles", "format": "physicochemical", "conditions": "PBS pH 7.4, excitation at 480 nm", "experimental": "All compounds were purified by HPLC and verified by LC-MS prior to quantitative activation experiments. Stock solutions in methanol were diluted into 1.5 mL of the appropriate solvent in a 1 cm×1 cm quartz cuvette. Measurements of solvent and pre-activation emission spectra for baseline values were made in at least triplicate, prior to addition of trans-cyclooctenol or cyclopropene 4 to initiate the fluorogenic reaction. 3-fold additional excess of trans-cyclooctenol and cyclopropene 4 were added for each fluorogenic reaction. Activation ratios were calculated from the peak emission intensity of the reaction product and the corresponding baseline intensity, and all the intensity data was background subtracted. Integration of the area under the emission intensity curves was used to validate the activation ratios.\nFluorescence emission of 2v, 5, 6 are depicted in FIG. 1A. All three compounds were dissolved in 2 μM phosphate-buffered saline (PBS) at pH 7.4. FIG. 5A depicts fluorescence emission of 2v in 2 μM phosphate-buffered saline (PBS) at pH 7.4. FIG. 5B depicts fluorescence emission of 2w, 7, 8. All three compounds were dissolved in 2 μM EtOH solution. […] FIG. 5C depicts fluorescence emission of 2w in 2 μM EtOH solution. FIG. 5D depicts fluorescence emission of 2x, 9, 10. […] FIG. 5E depicts fluorescence emission of 2x in 2 μM EtOH solution."}, "[4]": {"tested_on": "A33 antigens on live LS174T human colon carcinoma cells", "assay": "Live-cell imaging of TCO-antibody pretargeted cells", "format": "cell-based", "conditions": "5 μM probe, 30 minutes", "experimental": "FIGS 1A-1D. Depicted in FIG. 1A are fluorescence emission spectra for compound 2v (lowest line) and compound 5 (middle line) and 6 (upper line) in PBS; excitation at 480 nm. FIG. 1B: Figure depicts equimolar solutions of compound 6 and 2v under excitation by a handheld UV lamp. FIGS. 1C-1D: Figures depict Live-cell imaging of LS174T cells. FIG. 1C: Cells were incubated (t=1 h) with 200 nM TCO-conjugated A33 antibodies, washed, and then imaged 30 minutes after the addition of 5 μM 2v. FIG. 1D: Cells lacking TCO were treated with 5 μM 2v for 30 minutes. Scale bar=[…] for both FIGS. 1C and 1D.\nCell culture and labeling. LS174T cells were grown in DMEM media supplemented with 10% fetal bovine serum, 1% L-glutamine, 1% penicillin/streptomycin. Cells were incubated in 5.0% carbon dioxide, 95% humidity at 37° C. The cells were grown in a T-75 tissue culture flask and seeded on a Lab-Tek II chamber slide two days prior to the experiment. A33 antibody (R&D Systems, MN) was modified by incubation with 50 equivalents of trans-cyclooctene NHS ester for 2 hours at room temperature. The A33 antibody was washed three times with 0.1M sodium bicarbonate buffer pH 8.3 using a 30 kDa spin filter before adding the antibody to the cells at a final concentration of 200 nM for 1 hour.\nImage acquisition. […]"}}}
{"smiles": "Cc1nnc(CCOS(C)(=O)=O)nn1", "note": "[Cmpd 1a]", "values": [{"measurement": "storage stability", "setting": "[1]", "value": "without noticeable decomposition"}]}
{"smiles": "C(=C\\c1nnc(/C=C/c2ccccc2)nn1)/c1ccccc1", "note": "[Cmpd 2p]", "values": [{"measurement": "solubility", "setting": "[2]", "value": "insolubility"}]}
{"smiles": "Cc1nnc(/C=C/c2ccc(C(=O)O)c(-c3c4cc(F)c(=O)cc-4oc4cc(O)c(F)cc34)c2)nn1", "note": "[Cmpd 2v]", "values": [{"measurement": "increase in fluorescence intensity (turn-on)", "setting": "[3]; after reaction with a TCO", "value": 400, "unit": "fold"}, {"measurement": "increase in fluorescence intensity (turn-on)", "setting": "[3]; after reaction with a cyclopropene", "value": 135, "unit": "fold"}, {"measurement": "background staining", "setting": "[4]; cells lacking targeted dienophile", "value": "negligible background staining"}, {"measurement": "confocal imaging of targeted dienophiles", "setting": "[4]; cells pretargeted with 200 nM TCO-conjugated A33 antibodies", "value": "readily revealed the location of targeted dienophiles"}]}
